Laboratory results published in patent US7432045B2 (priority 2003, dated 2008).
Where two headings read alike, the source gives them in different places. Peptide text beside a SMILES is read from it.

Legend:
H5 Avian Influenza virus = details: dog
HSV-1 KOS = details: depending on concentration
HSV-1 KOS mutant hrR3 = details: 25 μM peptide
hrR3 = assay: Virucidal assay; assay type: cell-based, HSV-1
Protocol: […] The treated virus was diluted 200-fold with serum-supplemented DMEM and assayed for infectivity approximately 1 hour later in microtiter wells seeded with Vero cells (3.5×10^4 cells/well) 1 d earlier. Forty or 100 microliter volumes of diluted virus were adsorbed for 1 or 2 h at 37° C. and lacZ^+ cells were scored 8 hours later. In some experiments, aliquots of diluted virus were first dialyzed (Spectra/Por; MWCO 12-14,000) overnight at 4° C. against a 60-fold excess volume of Hepes-buffered serum-supplemented DMEM or forced by syringe through 0.22 μm membranes (Millex-GV; Millipore) before the remaining infectious virus was assayed.

CC(C)C[C@H](NC(=O)[C@H](C)NC(=O)[C@H](CC(C)C)NC(=O)[C@H](CC(C)C)NC(=O)[C@@H](NC(=O)[C@H](C)NC(=O)[C@@H]1CCCN1C(=O)[C@H](CC(C)C)NC(=O)[C@H](CC(C)C)NC(=O)[C@H](C)NC(=O)[C@@H](NC(=O)[C@H](C)NC(=O)[C@H](C)NC(=O)[C@H](CCCCN)NC(=O)[C@H](CCCCN)NC(=O)[C@H](CCCNC(=N)N)NC(=O)[C@@H](N)CCCNC(=N)N)C(C)C)C(C)C)C(=O)N[C@@H](CC(C)C)C(=O)N[C@@H](C)C(=O)N1CCC[C@H]1C(=O)O [EB] (H-RRKKAAVALLPAVLLALLAP-OH)
IC50 (H5 Avian Influenza virus): 0.5 µM | reduction of virus yields (HSV-1 KOS): up to eight orders of magnitude | effect on development of lacZ+ cells when added immediately after citrate treatment (HSV-1 KOS mutant hrR3): no longer had any effect | reversibility of virion inactivation by overnight dialysis (hrR3): irreversibly inactivated | IC50 (hrR3; 4° C., read-out: Virucidal Activity 4° C. IC50): 89 µM | IC50 (hrR3; first experiment, FIG. 8A, read-out: inhibition of infectivity of virions IC50): 44 µM | IC50 (hrR3; second experiment, FIG. 8B, read-out: inhibition of infectivity of virions IC50): 69 µM
